Laboratory results from ChEMBL document CHEMBL4396935, “l-like 3-deazaneplanocin analogues: Synthesis and antiviral properties” (Bioorg Med Chem Lett, 2019).
Values after ≈ are worked out from the molar mass of the structure shown. Active and inactive are the calls of the source. No cut-off for these calls is given here.

What was measured:
[1] = tested on: H1N1 subtype; assay: Antiviral activity against Influenza A virus (H1N1); type: functional
[2] = tested on: Junin virus; assay: Antiviral activity against Junin virus; type: functional, organism-based; conditions: Mammarenavirus juninense
[3] = Cytotoxicity against African green monkey Vero cells; type: cell-based; conditions: chlorocebus sabaeus
[4] = tested on: Human betaherpesvirus 5; assay: Antiviral activity against human cytomegalovirus; type: functional, organism-based
[5] = tested on: Chikungunya virus; assay: Antiviral activity against Chikungunya virus; type: functional, organism-based
[6] = tested on: Japanese encephalitis virus; assay: Antiviral activity against Japanese encephalitis virus; type: functional, organism-based
[7] = tested on: Pichinde virus; assay: Antiviral activity against Pichinde virus infected in African green monkey Vero cells assessed as reduction in virus induced cytopathic effect; type: functional, organism-based
[8] = tested on: Human adenovirus 5; assay: Antiviral activity against Human adenovirus 5; type: functional, organism-based
[9] = tested on: Tacaribe virus; assay: Antiviral activity against Tacaribe virus infected in African green monkey Vero cells assessed as reduction in virus induced cytopathic effect; type: functional, organism-based; conditions: Mammarenavirus tacaribeense
[10] = tested on: Lassa virus; assay: Antiviral activity against Lassa virus; type: functional, organism-based; conditions: Mammarenavirus lassaense
[11] = tested on: Ebolavirus; assay: Antiviral activity against Ebolavirus infected in African green monkey Vero cells by immunofluorescent assay; type: functional, organism-based; conditions: for EC50: Orthoebolavirus
[12] = tested on: Venezuelan equine encephalitis virus; assay: Antiviral activity against Venezuelan equine encephalitis virus; type: functional, organism-based
[13] = tested on: Rift Valley fever virus; assay: Antiviral activity against Rift Valley fever virus; type: functional, organism-based
[14] = tested on: Yellow fever virus; assay: Antiviral activity against Yellow fever virus; type: functional, organism-based
[15] = tested on: Zika virus; assay: Antiviral activity against Zika virus; type: functional, organism-based
[16] = tested on: West Nile virus; assay: Antiviral activity against West Nile virus; type: functional, organism-based
[17] = tested on: Punta Toro virus; assay: Antiviral activity against Punta Toro virus; type: functional, organism-based

Row | SMILES | Activity [1] | Activity [2] | CC50 [3] [µg/mL] | Activity [4] | Activity [5] | Activity [6] | EC50 [7] [µg/mL] | Activity [8] | EC50 [9] [µg/mL] | Activity [10] | EC50 [11] [µg/mL] | Activity [12] | Activity [13] | Activity [14] | Activity [7] | Activity [15] | Activity [16] | Activity [9] | Activity [17] | Activity [11]
1 | Nc1ncc(Br)c2c1ncn2[C@H]1C=C(CO)[C@H](O)[C@@H]1O | inactive | inactive | 83 to 100 (≈ 243 to 293 µM) | inactive | inactive | inactive | > 100 | inactive | > 100 | inactive | 4.2 (≈ 12.3 µM) |  |  |  |  |  |  |  |  | 
2 | NC(=O)c1nc(F)cnc1O [FAVIPIRAVIR] |  |  |  |  |  |  |  |  |  |  | 18.6 (≈ 118 µM) |  |  |  |  |  |  |  |  | 
3 | Nc1nccc2c1ncn2[C@H]1C=C(CF)[C@H](O)[C@@H]1O | inactive | inactive |  | inactive | inactive | inactive |  | inactive |  | inactive |  | inactive | inactive | inactive | inactive | inactive | inactive | inactive | inactive | inactive
4 | Nc1nccc2c1ncn2[C@H]1C=C(CO)[C@H](O)[C@@H]1O | inactive | inactive | 12 to 85 (≈ 45.8 to 324 µM) | inactive | inactive | inactive | 0.9 (≈ 3.43 µM) | inactive | 1.3 (≈ 4.96 µM) | inactive | 8.7 (≈ 33.2 µM) |  |  |  |  |  |  |  |  | 
5 | NC(=O)c1ncn([C@@H]2O[C@H](CO)[C@@H](O)[C@H]2O)n1 [RIBAVIRIN] |  |  |  |  |  |  | 12 (≈ 49.1 µM) |  | 9.3 (≈ 38.1 µM) |  |  |  |  |  |  |  |  |  |  | 
